Reference: patent publication US4420482A, “1,4-Bis(acetylsalicyloyloxy)piperizine derivatives” (priority 1980, dated 1983)

What was measured:
[1] = Gastric ulcerogenic effect in the rat; format: in vivo, Sprague Dawley rat; conditions: for Incidence of gastric lesions (animals with lesions versus total treated): fasted 36 hours, killed 5 hours later
[2] = Protective activity on lethal shock induced by inhaled histamine; format: in vivo, guinea-pig; conditions: for Protected animals: 20 guinea-pigs; for antihistaminic activity: inhaled histamine shock, guinea-pig
From the text: Table 4 points out the protective activity exerted by S.1528 versus the lethal shock induced in the guinea-pig by an inhaled histamine.

[3] = Paw carrageenin edema in the rat (anti-inflammatory activity); format: in vivo, Sprague Dawley rat; conditions: for anti-inflammatory activity: equimolecular doses, S.1528 vs acetylsalicylic acid
Experimental: The anti-inflammatory activity of S.1528 was assessed in the paw carrageenin edema (220 Sprague Dawley male rats with a mean bodyweight of 150 g). […] It should be noted that, in the overall context of the present patent application the term "equimolecular doses" of S.1528 indicates all those doses that contain acetylsalicylic residues in a quantity equivalent to that of acetylsalicylic acid used as reference drug.

[4] = Therapeutic index (ratio between toxic dose and active dose); format: in vivo; conditions: 2600:158 for S.1528; 1000:100 for acetylsalicylic acid
[5] = Antipyretic activity, hyperpyrexia induced by intramuscular brewers' yeast; format: in vivo, Sprague Dawley rat; conditions: for antipyretic activity: equimolecular doses, S.1528 vs acetylsalicylic acid; for mean temperature decrease: half dosage
[6] = Comparative oral acute toxicity in the mouse; format: in vivo
From the text: The new derivative of acetylsalicylic acid, ie S.1528, has been showing a quite mild toxicity associated with marked anti-inflammatory, antipyretic and analgesic activities as well as with an evident anti-histaminic activity. Moreover, unlike acetylsalicylic acid, the new compound appear to be entirely devoid of any gastric injuring effect.

[7] = Analgesic activity, pressure-induced pain on paw inflamed by brewers' yeast (test of Randall and Selitto); format: in vivo, Sprague Dawley rat; conditions: for Pain sensitivity threshold (g) of inflamed paw: mean of 1 and 2 hr, P < 0.01 vs controls; for analgesic activity: equimolecular doses, S.1528 vs acetylsalicylic acid
Experimental: The analgesic activity of S.1528 was assessed on the sensitivity threshold of pain induced by a pressure exerted on a rat's paw inflamed by application of brewers' yeast (90 Sprague Dawley male rats with a mean bodyweight of 150 g).

SMILES: CC(=O)Oc1ccccc1C(=O)OCCN1CCN(CCOC(=O)c2ccccc2OC(C)=O)CC1 [S.1528, 1,4-BIS-[2-(ACETYLSALICYLOYLOXY)ETHYL] PIPERAZINE]
- Mean number of gastric ulcerations (mm) ([1]; 158 mg/kg, os): 0 mm
- Incidence of gastric lesions (animals with lesions versus total treated) ([1]; 158 mg/kg, os): 0/20
- Mean number of gastric ulcerations (mm) ([1]; 317 mg/kg, i.p.): 0 mm
- Incidence of gastric lesions (animals with lesions versus total treated) ([1]; 317 mg/kg, i.p.): 0/20
- Mean number of gastric ulcerations (mm) ([1]; 317 mg/kg, os): 0 mm
- Incidence of gastric lesions (animals with lesions versus total treated) ([1]; 317 mg/kg, os): 0/20
- gastric injuring effect ([1]; equimolecular doses, rat): no gastric injuring effect
- Percent Protection ([2]; 158 mg/kg/os): 60%
- Time of resistance ([2]; 158 mg/kg/os): 523 min
- Protected animals ([2]; 158 mg/kg/os): 12 animals
- Percent Protection ([2]; 317 mg/kg/os): 100%
- Time of resistance ([2]; 317 mg/kg/os): > 720 min
- Protected animals ([2]; 317 mg/kg/os): 20 animals
- ED50 ([2]; Cavia porcellus, read-out: dose that protects 50 percent of the guinea-pigs from the onset of a shock due to histamine): 158 mg/kg
- antihistaminic activity [2]: evident antihistaminic activity
- Comparative edema decrease in the various groups of untreated control animals ([3]; 79 mg/kg/os, P ns): -23
- Comparative edema decrease in the various groups of untreated control animals ([3]; 158 mg/kg/os, P <0.01): -52
- Comparative edema decrease in the various groups of untreated control animals ([3]; 317 mg/kg/os, P <0.01): -83
- anti-inflammatory activity [3]: quantitatively superimposable anti-inflammatory activity
- therapeutic index (ratio between the toxic dose and the active dose) [4]: 16.45
- antipyretic activity [5]: quite the same antipyretic activity
- mean temperature decrease ([5]; 118.5 mg/kg/os): 0.4 degrees centigrades
- Mortality observed (7 days) ([6]; 750 mg/kg/os): 0/10
- Mortality observed (7 days) ([6]; 1000 mg/kg/os): 0/10
- Mortality observed (7 days) ([6]; 1500 mg/kg/os): 0/20
- Mortality observed (7 days) ([6]; 1750 mg/kg/os): 0/20
- Mortality observed (7 days) ([6]; 2000 mg/kg/os): 4/20
- Mortality observed (7 days) ([6]; 2250 mg/kg/os): 5/20
- Mortality observed (7 days) ([6]; 2500 mg/kg/os): 8/20
- Mortality observed (7 days) ([6]; 2750 mg/kg/os): 12/20
- Mortality observed (7 days) ([6]; 3000 mg/kg/os): 16/20
- LD50 at 168 h ([6]; in vivo, oral, read-out: oral LD 50): ~2600 mg/kg
- Threshold percent increase vs. controls ([7]; 158 mg/kg/os): 41.3%
- Pain sensitivity threshold (g) of inflamed paw ([7]; 158 mg/kg/os): 127.2 ± 6.3 g
- Threshold percent increase vs. controls ([7]; 317 mg/kg/os): 69.1%
- Pain sensitivity threshold (g) of inflamed paw ([7]; 317 mg/kg/os): 152.2 ± 8.4 g
- analgesic activity [7]: quantitatively similar activity

SMILES: CC(=O)Oc1ccccc1C(=O)O [Acetylsalicylic acid, acetylsalicylic acid, reference compound]
- Time of resistance ([2]; 110 mg/kg/os): 66 ± 6.3 min
- Protected animals ([2]; 110 mg/kg/os): 0 animals
- Time of resistance ([2]; 221 mg/kg/os): 54 min
- Protected animals ([2]; 221 mg/kg/os): 0 animals
- antihistaminic activity [2]: entirely devoid of any antihistaminic activity
- Comparative edema decrease in the various groups of untreated control animals ([3]; 55 mg/kg/os, P ns): -28
- Comparative edema decrease in the various groups of untreated control animals ([3]; 110 mg/kg/os, P <0.01): -44
- Comparative edema decrease in the various groups of untreated control animals ([3]; 221 mg/kg/os, P <0.01): -79
- anti-inflammatory activity [3]: quantitatively superimposable anti-inflammatory activity
- therapeutic index (ratio between the toxic dose and the active dose) [4]: 10
- antipyretic activity [5]: quite the same antipyretic activity
- mean temperature decrease ([5]; 75 mg/kg/os): 0.4 degrees centigrades
- Mortality observed (7 days) ([6]; 250 mg/kg/os): 0
- Mortality observed (7 days) ([6]; 500 mg/kg/os): 0
- Mortality observed (7 days) ([6]; 750 mg/kg/os): 4/20
- Mortality observed (7 days) ([6]; 1000 mg/kg/os): 10/20
- Mortality observed (7 days) ([6]; 1250 mg/kg/os): 14/20
- Mortality observed (7 days) ([6]; 1500 mg/kg/os): 20/20
- Mortality observed (7 days) ([6]; 1750 mg/kg/os): 10/10
- oral LD 50 ([6]; oral, 10080 min): 1000 mg/kg
- Threshold percent increase vs. controls ([7]; 110 mg/kg/os): 36.2%
- Pain sensitivity threshold (g) of inflamed paw ([7]; 110 mg/kg/os): 122.6 ± 7.1 g
- Threshold percent increase vs. controls ([7]; 221 mg/kg/os): 71.2%
- Pain sensitivity threshold (g) of inflamed paw ([7]; 221 mg/kg/os): 154.1 ± 5.7 g
- analgesic activity [7]: quantitatively similar activity
